Patent US11530206B2, “Phenylaminopyrimidine amide autophagy inhibitors and methods of use thereof” (Deciphera Pharmaceuticals, LLC, priority 2019, dated 2022)

Experiments:
ULK kinase [1] = experiment: pATG13 levels of mutant KRas MiaPaCa-2 cells after treatment with ULK inhibitors in combination with trametinib (ELISA); assay type: cell-based, human; details: MiaPaCa-2 pancreatic cancer cells, 250 nM trametinib, overnight, pS318-ATG13
Outline: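 MiaPaCa-2 cells in DMEM with 10% FBS and 2.5% horse serum were pretreated with trametinib or DMSO, then given a test-compound dose response overnight at 37° C. Lysates were assayed for phospho-ATG13 by ELISA (A450 minus A540 background, blank-corrected). % phosphorylation was calculated relative to controls and fitted to IC50.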

ULK2 kinase = biological target: T1, ULK2 kinase (Homo sapiens, UniProt Q8IYT8); experiment: Biochemical assay for ULK2 (coupled pyruvate kinase/lactate dehydrogenase assay); details: 9.7 nM ULK2 (residues 1-306, GST and His tag), myelin basic protein, 1 mM ATP; read-out: ULK2.2
T1 construct: purchased Eurofins 14-772
Experimental: Example 132. Biochemical Assay for ULK2 (SEQ. ID NO: 3)
Activity of ULK2 kinase was determined spectroscopically using a coupled pyruvate kinase/lactate dehydrogenase assay that continuously monitors the ATP hydrolysis-dependent oxidation of NADH (e.g., Schindler et al. Science (2000) 289: 1938-1942). Assays were conducted in 384-well plates (100 uL final volume) using 9.7 nM ULK2 (Eurofins CAT #14-772), 0.25 mg/mL myelin basic protein, 1.5 units pyruvate kinase, 2.1 units lactate dehydrogenase, 1 mM phosphoenol pyruvate, 0.28 mM NADH and 1 mM ATP in assay buffer (100 mM Tris, pH 7.5, 15 mM MgCl2, 0.5 mM DTT, 0.1% octyl-glucoside, 0.002% (w/v) BSA, and 0.002% Triton X-100). Inhibition of ULK2 was measured by adding serial diluted test compound (final assay concentration of 1% DMSO). A decrease in absorption at 340 nm was monitored continuously for 6 hours at 30° C. on a multi-mode microplate reader (BioTek). The reaction rate was calculated using the 2-3 h time frame. The reaction rate at each concentration of compound was converted to percent inhibition using controls (i.e. reaction with no test compound and reaction with a known inhibitor) and IC50 values were calculated by fitting a four-parameter sigmoidal curve to the data using Prism (GraphPad software).

ULK1 kinase [2] = biological target: T2, ULK1 kinase (Homo sapiens, UniProt O75385); experiment: Biochemical assay for ULK1.2 (coupled pyruvate kinase/lactate dehydrogenase assay); details: 19 nM ULK1 (residues 1-314, His tag), myelin basic protein, 1 mM ATP
T2 construct: purchased Eurofins 14-959
T2 sequence (O75385 with tags, fused parts or gaps): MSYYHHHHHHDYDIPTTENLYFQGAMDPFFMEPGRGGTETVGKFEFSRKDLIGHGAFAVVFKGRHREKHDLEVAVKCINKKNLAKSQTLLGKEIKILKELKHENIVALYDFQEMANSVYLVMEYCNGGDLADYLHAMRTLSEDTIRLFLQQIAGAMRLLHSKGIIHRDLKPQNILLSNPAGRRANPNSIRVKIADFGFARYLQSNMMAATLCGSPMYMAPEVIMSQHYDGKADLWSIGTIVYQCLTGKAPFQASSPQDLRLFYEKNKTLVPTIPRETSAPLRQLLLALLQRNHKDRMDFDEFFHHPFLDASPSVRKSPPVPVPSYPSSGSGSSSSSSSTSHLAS
Experimental: Biochemical Assay for ULK1.2 (SEQ. ID NO: 1)
Inhibition of ULK1 was measured by adding serial diluted test compound (final assay concentration of 1% DMSO). A decrease in absorption at 340 nm was monitored continuously for 6 hours at 30° C. on a multi-mode microplate reader (BioTek). The reaction rate was calculated using the 2-3 h time frame. The reaction rate at each concentration of compound was converted to percent inhibition using controls (i.e. reaction with no test compound and reaction with a known inhibitor) and IC50 values were calculated by fitting a four-parameter sigmoidal curve to the data using Prism (GraphPad software).

ULK kinase [3] = experiment: pATG13 levels of mutant KRas A549 cells after treatment with ULK inhibitors in combination with trametinib (ELISA); assay type: cell-based, human; details: A549 (KRAS mutant) lung cancer cells, 250 nM trametinib, overnight, pS318-ATG13
Outline: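 Lysates with phosphatase/protease inhibitors assayed by pATG13 ELISA, A450 minus A540 background and blank-corrected. % ATG13 phosphorylation versus DMSO controls fitted to IC50.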

LRRK2 kinase = biological target: T3, LRRK2 kinase (Homo sapiens, UniProt Q5S007); experiment: Biochemical assay for LRRK2 (coupled pyruvate kinase/lactate dehydrogenase assay); details: 26.4 nM LRRK2 (residues 970-2528), peptide substrate, 1 mM ATP
T3 construct: purchased Thermo Fisher
Experimental: Example 138. Biochemical Assay for LRRK2 (SEQ. ID NO: 4)
Activity of LRRK2 kinase was determined spectroscopically using a coupled pyruvate kinase/lactate dehydrogenase assay that continuously monitors the ATP hydrolysis-dependent oxidation of NADH (e.g., Schindler et al. Science (2000) 289: 1938-1942). Assays were conducted in 384-well plates (100 μL final volume) using 26.4 nM LRRK2 (Thermo Fisher), 0.1 mM peptide substrate ([…] (SEQ ID NO: 6)), 1.5 units pyruvate kinase, 2.1 units lactate dehydrogenase, 1 mM phosphoenol pyruvate, 0.28 mM NADH and 1 mM ATP in assay buffer (100 mM Tris, pH 7.5, 15 mM MgCl2, 0.5 mM DTT, 0.004% (w/v) BSA, and 0.004% Triton X-100). Inhibition of LRRK2 was measured by adding serial diluted test compound (final assay concentration of 1% DMSO). A decrease in absorption at 340 nm was monitored continuously for 6 hours at 30° C. on a multi-mode microplate reader (BioTek). The reaction rate was calculated using the 2-3 h time frame. The reaction rate at each concentration of compound was converted to percent inhibition using controls (i.e. reaction with no test compound and reaction with a known inhibitor) and IC50 values were calculated using software routines in Prism (GraphPad software).

ULK1 kinase [4] = biological target: T4, ULK1 kinase (Homo sapiens, UniProt O75385, E37A/K38A); experiment: Biochemical assay for ULK1.3 (coupled pyruvate kinase/lactate dehydrogenase assay, peptide substrate); details: 0.1 nM ULK1 (residues 1-283), 1 mM ATP
T4 construct: purchased Beryllium
T4 sequence (O75385 1-283 E37A/K38A): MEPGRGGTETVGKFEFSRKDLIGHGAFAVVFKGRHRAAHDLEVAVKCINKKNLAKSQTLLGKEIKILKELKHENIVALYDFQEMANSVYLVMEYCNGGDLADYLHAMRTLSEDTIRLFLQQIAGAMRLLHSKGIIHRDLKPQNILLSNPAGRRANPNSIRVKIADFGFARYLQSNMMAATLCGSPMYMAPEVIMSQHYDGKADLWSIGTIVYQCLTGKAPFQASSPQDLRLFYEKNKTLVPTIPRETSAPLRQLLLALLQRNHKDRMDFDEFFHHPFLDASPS
Outline: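 ULK1.3 activity was followed by continuous decrease in 340 nm absorbance over 6 h at 30 °C with 1% DMSO final. Rates were taken from the 2–3 h window and converted to percent inhibition against no-compound and known-inhibitor controls. IC50 values came from curve fitting.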

T3 sequence (Q5S007 with tags, fused parts or gaps): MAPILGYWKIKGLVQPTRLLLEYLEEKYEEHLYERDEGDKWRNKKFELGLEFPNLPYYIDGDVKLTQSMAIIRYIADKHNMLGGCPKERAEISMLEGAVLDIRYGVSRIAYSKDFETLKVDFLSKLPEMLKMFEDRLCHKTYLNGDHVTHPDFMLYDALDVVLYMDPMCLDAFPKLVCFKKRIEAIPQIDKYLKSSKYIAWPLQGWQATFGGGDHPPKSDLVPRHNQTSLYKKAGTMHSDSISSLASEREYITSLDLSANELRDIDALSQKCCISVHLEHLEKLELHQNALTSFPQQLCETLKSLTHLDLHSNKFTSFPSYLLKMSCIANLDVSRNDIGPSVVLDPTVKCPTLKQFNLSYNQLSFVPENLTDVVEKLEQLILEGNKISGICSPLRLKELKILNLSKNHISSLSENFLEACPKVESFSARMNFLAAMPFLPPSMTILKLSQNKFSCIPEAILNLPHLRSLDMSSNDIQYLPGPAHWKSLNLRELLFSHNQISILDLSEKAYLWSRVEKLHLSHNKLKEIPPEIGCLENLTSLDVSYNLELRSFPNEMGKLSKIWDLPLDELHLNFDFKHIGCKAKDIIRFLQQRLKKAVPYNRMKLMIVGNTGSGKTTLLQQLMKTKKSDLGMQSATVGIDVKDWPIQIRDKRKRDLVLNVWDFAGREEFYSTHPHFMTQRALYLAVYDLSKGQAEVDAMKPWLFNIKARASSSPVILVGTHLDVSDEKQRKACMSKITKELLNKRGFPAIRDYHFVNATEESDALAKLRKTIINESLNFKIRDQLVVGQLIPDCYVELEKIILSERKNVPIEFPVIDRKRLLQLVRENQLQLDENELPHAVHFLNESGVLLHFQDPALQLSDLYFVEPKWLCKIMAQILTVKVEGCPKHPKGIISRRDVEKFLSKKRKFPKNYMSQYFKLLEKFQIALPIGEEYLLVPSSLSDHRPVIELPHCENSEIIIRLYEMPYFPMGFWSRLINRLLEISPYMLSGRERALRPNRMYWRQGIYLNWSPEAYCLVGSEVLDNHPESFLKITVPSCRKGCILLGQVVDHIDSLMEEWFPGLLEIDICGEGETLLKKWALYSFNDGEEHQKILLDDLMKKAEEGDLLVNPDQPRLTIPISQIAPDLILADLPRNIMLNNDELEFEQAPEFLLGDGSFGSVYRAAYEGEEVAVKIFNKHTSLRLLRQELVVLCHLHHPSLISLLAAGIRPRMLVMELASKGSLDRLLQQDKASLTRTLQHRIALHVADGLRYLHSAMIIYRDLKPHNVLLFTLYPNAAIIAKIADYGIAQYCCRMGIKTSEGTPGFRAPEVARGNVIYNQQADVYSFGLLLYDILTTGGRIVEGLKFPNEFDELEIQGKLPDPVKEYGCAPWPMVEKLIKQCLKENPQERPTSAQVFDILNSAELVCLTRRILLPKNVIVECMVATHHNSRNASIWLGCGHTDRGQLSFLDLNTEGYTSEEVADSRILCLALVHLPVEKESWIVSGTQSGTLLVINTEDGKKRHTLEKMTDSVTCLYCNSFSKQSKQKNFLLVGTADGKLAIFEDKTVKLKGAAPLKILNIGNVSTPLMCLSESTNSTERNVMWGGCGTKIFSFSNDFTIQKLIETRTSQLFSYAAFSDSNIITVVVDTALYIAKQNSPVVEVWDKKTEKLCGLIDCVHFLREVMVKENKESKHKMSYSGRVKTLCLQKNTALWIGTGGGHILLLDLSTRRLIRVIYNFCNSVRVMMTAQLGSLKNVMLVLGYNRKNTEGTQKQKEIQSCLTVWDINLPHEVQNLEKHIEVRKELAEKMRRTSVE
T1 sequence (Q8IYT8 with tags, fused parts or gaps): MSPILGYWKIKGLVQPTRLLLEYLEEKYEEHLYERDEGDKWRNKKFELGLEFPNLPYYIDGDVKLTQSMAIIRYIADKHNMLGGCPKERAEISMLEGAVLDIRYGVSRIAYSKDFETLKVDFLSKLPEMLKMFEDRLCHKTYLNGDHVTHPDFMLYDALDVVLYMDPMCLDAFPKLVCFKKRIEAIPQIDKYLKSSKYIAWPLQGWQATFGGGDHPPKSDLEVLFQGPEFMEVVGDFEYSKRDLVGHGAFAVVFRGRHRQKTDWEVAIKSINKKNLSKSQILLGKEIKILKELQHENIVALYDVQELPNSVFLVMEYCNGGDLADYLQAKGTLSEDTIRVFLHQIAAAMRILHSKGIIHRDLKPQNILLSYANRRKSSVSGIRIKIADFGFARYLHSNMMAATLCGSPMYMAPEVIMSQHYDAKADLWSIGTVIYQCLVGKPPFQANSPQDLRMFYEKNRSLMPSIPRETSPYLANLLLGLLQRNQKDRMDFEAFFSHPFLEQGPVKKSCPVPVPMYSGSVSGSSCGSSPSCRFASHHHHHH

Structure (SMILES)	IC50 (ULK kinase [1]) [nM]	IC50 (ULK2 kinase) [nM]	IC50 (ULK1 kinase [2]) [nM]	IC50 (ULK kinase [3]) [nM]	IC50 (LRRK2 kinase) [nM]	IC50 (ULK1 kinase [4]) [nM]
CCc1cc(N2CCN(C)CC2)ccc1Nc1ncc(C(F)(F)F)c(NCCCN2CCCC2=O)n1 [Example 4]	300 to 600	100 to 500	25 to 100	300 to 600		
Cc1cc(C2CCNCC2)ccc1Nc1ncc(C(F)(F)F)c(NCCCN2CCCCC2=O)n1 [Example 7]		100 to 500	25 to 100	> 600		
Cc1cc(C2CCN(C)CC2)ccc1Nc1ncc(C(F)(F)F)c(NCCCN2CCCCC2=O)n1 [Example 8]		100 to 500	25 to 100	100 to 300		
O=C1CCCCN1CCCNc1nc(Nc2ccc(N3CCCNCC3)cc2)ncc1C(F)(F)F [Example 9, 1-(3-((2-((4-(1,4-diazepan-1-yl)phenyl)amino)-5-(trifluoromethyl)pyrimidin-4-yl)amino)propyl)piperidin-2-one]		1 to 25	1 to 25			
CCN1CCCN(c2ccc(Nc3ncc(C(F)(F)F)c(NCCCN4CCCCC4=O)n3)cc2)CC1 [Example 10, 1-(3-((2-((4-(4-ethyl-1,4-diazepan-1-yl)phenyl)amino)-5-(trifluoromethyl)pyrimidin-4-yl)amino)propyl)piperidin-2-one]	100 to 300	1 to 25	1 to 25	100 to 300		
CCc1cc(N2CCN(CC)CC2)ccc1Nc1ncc(C(F)(F)F)c(NCCCN2CCCCC2=O)n1 [Example 12]	10 to 100	1 to 25	1 to 25	10 to 100		
CCN1CCN(c2ccc(Nc3ncc(C(F)(F)F)c(NCCCN4CCCCC4=O)n3)c(C3CC3)c2)CC1 [Example 13]	10 to 100	1 to 25	1 to 25	10 to 100		
Cc1cc(N2CCN(CCF)CC2)ccc1Nc1ncc(C(F)(F)F)c(NCCCN2CCCCC2=O)n1 [Example 18]		25 to 100	100 to 500		1 to 100	
CCN1CCN(c2ccc(Nc3ncc(C(F)(F)F)c(NCCCN4CCCCC4=O)n3)c(C)c2)CC1 [Example 19]	100 to 300	25 to 100	1 to 25	100 to 300		
Cc1cc(N2CCN(C3CCC3)CC2)ccc1Nc1ncc(C(F)(F)F)c(NCCCN2CCCCC2=O)n1 [Example 21]	100 to 300	1 to 25	1 to 25	300 to 600		
Cc1cc(N2CCN(C3CC3)CC2)ccc1Nc1ncc(C(F)(F)F)c(NCCCN2CCCCC2=O)n1 [Example 22]		100 to 500	1 to 25			
CCc1cc(N2CCOCC2)ccc1Nc1ncc(C(F)(F)F)c(NCCCN2CCCOCC2=O)n1 [Example 50]	> 600	> 500	100 to 500	> 600	1 to 100	
O=C1COCCCN1CCCNc1nc(Nc2ccc(N3CCOCC3)cc2C2CC2)ncc1C(F)(F)F [Example 51]		> 500	100 to 500		1 to 100	
CCc1cc(N2CCOCC2)ccc1Nc1ncc(Cl)c(NCCCN2CCCOCC2=O)n1 [Example 57]		> 500	> 500	> 600		
O=C1COCCCN1CCCNc1nc(Nc2ccc(N3CCOCC3)cc2C2CC2)ncc1Cl [Example 59]		> 500	> 500			
Cc1cc(N2CCN(C)CC2)ccc1Nc1ncc(C(F)(F)F)c(NCCCN2CCOCCC2=O)n1 [Example 65]	100 to 300	25 to 100	1 to 25	10 to 100		
CCc1cc(N2CCN(C)CC2)ccc1Nc1ncc(C(F)(F)F)c(NCCCN2CCOCCC2=O)n1 [Example 66]		25 to 100			100 to 300	
O=C1CCOCCN1CCCNc1nc(Nc2ccc(N3CCOCC3)cc2C2CC2)ncc1C(F)(F)F [Example 71]	> 600	> 500	1 to 25			
CCc1cc(N2CCOCC2)ccc1Nc1ncc(C(F)(F)F)c(NCCCN2CCOCCC2=O)n1 [Example 72]	300 to 600	> 500	25 to 100			
Cc1cc(N2CCOCC2)ncc1Nc1ncc(C(F)(F)F)c(NCCCN2CCCCC2=O)n1 [Example 90]		> 500	> 500		300 to 600	
Cc1cc(N2CCN(C)CC2)ncc1Nc1ncc(C(F)(F)F)c(NCCCN2CCCCC2=O)n1 [Example 91]	> 600	100 to 500	25 to 100	100 to 300		25 to 100
Cc1cc(N2CCN(C)CC2)ncc1Nc1cc(NCCCN2CCCCC2=O)c(C(F)(F)F)cn1 [Example 95]		> 500	100 to 500			
Cc1cc(N2CCOCC2)ncc1Nc1cc(NCCCN2CCCCC2=O)c(C(F)(F)F)cn1 [Example 96]		> 500	> 500			
Cc1cc(-c2cnn(C)c2)ccc1Nc1ncc(C(F)(F)F)c(NCCCN2CCCCC2=O)n1 [Example 108]		> 500	> 500		1 to 100	
Cc1cc(-c2cn(C)cn2)ccc1Nc1ncc(C(F)(F)F)c(NCCCN2CCOCCC2=O)n1 [Example 109]		> 500	> 500	> 600	1 to 100	
